Source: US11879021B2, “Cyclic peptides and uses thereof” (UNIVERSITÉ DE MONTRÉAL, priority 2016, dated 2024)

How the values were obtained:
Assay type in all cases: cell-based, murine
[1] = tested on: R-FSL-1 (TLR2 agonist)-induced NO production in RAW macrophage cell line; test: Nitric oxide (NO) production induced by TLR2 agonist R-FSL-1 in RAW macrophage cell line; conditions: RAW macrophages
Description: The murine RAW1 macrophage cell line was obtained from American Type Cell Collection (ATCC #TIB-71), seeded at 1.5×10^5 cells/well in Dulbecco's Modified Eagle's medium (DMEM) containing 100 U/mL of penicillin (Pen) and 100 μg/mL of streptomycin (Strep) on a 48-well plate (Costar® #3548), and incubated at 37° C. with 5% CO2. After 2 h, the cell culture medium of adhered cells was removed and replaced by DMEM-Pen/Strep medium containing 0.2% of bovine serum albumin (BSA), and supplemented with the cyclic peptides at a concentration of 10^−6 or 10^−7 M. MPE-001 (DBG178, His-D-Trp-Ala-AzaTyr-D-Phe-Lys-NH2) and [azaLys^6]-GHRP-6 (His-D-Trp-Ala-Trp-D-Phe-azaLys-NH2, negative control) at 10^−6 M were used as positive and negative controls, respectively. After 1 h pre-incubation, the cells were stimulated overnight using the TLR2 ligand fibroblast-stimulating lipopeptide (R-FSL-1) (Invivogen® #L7022) at a concentration of 300 ng/mL. Supernatants were then collected for nitrite production analysis by fluorescence using 2,3-diaminonaphthalene (DAN). Briefly, 25 μL of sample was incubated with 0.5 μg of DAN in a 100 μL final volume of phosphate buffer (50 mM, pH 7.5) at room temperature in the dark. After 15 min, the reaction was stopped with 20 μL of NaOH (2.8N) and the plate was read using a fluorescence plate reader (TECAN® Safire, λexc 365 nm and λem 430 nm).

[2] = tested on: R-FSL-1 (TLR2 agonist)-induced TNF-α and CCL-2 release in RAW macrophages; test: R-FSL-1-induced TNF-α and CCL-2 release in RAW macrophages; conditions: 10^−7 M
[3] = tested on: R-FSL-1 (TLR2 agonist)-induced TNF-α and CCL-2 release in RAW macrophages; test: as above; conditions: 10^−7 M; remark: listed apart in the source
Description: The murine RAW1 macrophage cell line was obtained from American Type Cell Collection (ATCC #TIB-71). RAW cells were seeded at 150,000 cells per well in a 48-well plate (Costar® #3548) and weaned overnight in medium (DMEM supplemented 1% penicillin/streptomycin) at 37° C. with 5% CO2. The next day, the medium was changed to DMEM-1% penicillin/streptomycin supplemented with 0.2% BSA. The cells were first pretreated with 300 μL of azapeptides DBG178 (MPE-133, reference standard), 25 (MPE-210), 26 (MPE-266), 28 (MPE-268), 32 (MPE-267), 33 (MPE-298), 38 (MPE-308), 35 (MPE-300), 39 (MPE-310) and azaLys6-GHRP-6 (as negative control) at 10^-7M for 30 min. Then, […] of the TLR2 agonist, R-FSL-1 (300 ng/ml final concentration, R-FSL-1, Invivogen® #L7022) was added for 4 h period of incubation at 37° C. with 5% CO2. At the end of the incubation period, media were collected and stored at −80° C. for TNF-α and CCL-2 assays using ELISA kits (EbioScience® #88-7391 and #88-7324). Results were analyzed by analysis of variance (ANOVA) with post hoc comparisons using Dunnett's test with a statistical software package (Graph Pad Prism® version 7.0). P<0.05 was considered statistically significant.

`C=CCN1CC#CCN(NC(=O)[C@H](C)N)C(=O)N[C@H](Cc2c[nH]c3ccccc23)C(=O)N[C@@H](C)C(=O)N[C@@H](Cc2c[nH]c3ccccc23)C(=O)N[C@H](Cc2ccccc2)C(=O)N[C@H](C(N)=O)CCCC1` [MPE-298] was tested, and the “suppression of NO production compared with positive control MPE-001 at the same concentration” value ([1]; 10^−7 M, FIG. 4F) was “more important”, the “suppression of R-FSL-1-mediated NO production at 10^−7 M” value ([1]; 10^−7 M, further analyses, FIG. 4F) was “significant suppression” and the “suppression of R-FSL-1-mediated NO production” value ([1]; at the concentration tested (10^−6 or 10^−7 M), FIGS. 4A to 4F) was “significant suppression”. For the same compound, the “inhibitory effect on R-FSL-1-induced CCL-2 release compared with reference standard DBG178 (MPE-001)” value [2] was “significantly higher”, the “effect on R-FSL-1-induced CCL-2 release” value [3] was “significant inhibitory effect” and the “effect on R-FSL-1-induced TNF-α release” value [3] was “significant inhibitory effect”.
